#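 Test compounds were applied to cells in 96-well plates for 48 hours at 5 doses. At the GI50, growth is halved.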 The source made the active and inactive calls. No stated cut-off is given here; in the data, active = GI50 up to about 1.1 µM and inactive = higher.
# Key:
# Experiment in all cases: DTP human tumour cell line panel, 48 h
# [1] = system: Malme-3M
# [2] = system: IGROV-1
# [3] = system: 786-0
# [4] = system: SW-620
# [5] = system: MDA-MB-231
# [6] = system: RXF 393
# [7] = system: MDA-MB-435
# [8] = system: U-251
# [9] = system: NCI-H460
# [10] = system: LOX IMVI
# [11] = system: RPMI-8226
# [12] = system: UO-31
# [13] = system: OVCAR-8
# [14] = system: SF-539
# [15] = system: OVCAR-4
# [16] = system: Hs-578T
# [17] = system: CCRF-CEM
# [18] = system: HCC 2998
# [19] = system: SNB-75
# [20] = system: HL-60
Structure (SMILES),GI50 [1],GI50 [2],GI50 [3],GI50 [4],GI50 [5],GI50 [6],GI50 [7],GI50 [8],GI50 [9],GI50 [10],GI50 [11],GI50 [12],GI50 [13],GI50 [14],GI50 [15],GI50 [16],GI50 [17],GI50 [18],GI50 [19],GI50 [20]
CN(C)CCCNc1cc(O)c2c(c1O)C(=O)c1ccccc1C2=O,31.3 µM (inactive),10.6 µM (inactive),7.67 µM (inactive),8.65 µM (inactive),12.6 µM (inactive),4.59 µM (inactive),15.5 µM (inactive),13.2 µM (inactive),6.46 µM (inactive),9.53 µM (inactive),12.9 µM (inactive),1.69 µM (inactive),12.6 µM (inactive),12.1 µM (inactive),12.1 µM (inactive),29.2 µM (inactive),,,,
COP(C)(=O)C1=CCN(C(=O)OCC[Si](C)(C)C)CC1 (centres undefined),> 100 µM (inactive),> 100 µM (inactive),> 100 µM (inactive),> 100 µM (inactive),> 100 µM (inactive),> 100 µM (inactive),> 100 µM (inactive),> 100 µM (inactive),> 100 µM (inactive),> 100 µM (inactive),> 100 µM (inactive),> 100 µM (inactive),> 100 µM (inactive),,> 100 µM (inactive),> 100 µM (inactive),> 100 µM (inactive),> 100 µM (inactive),> 100 µM (inactive),
O[C@@]12Cc3c([nH]c4ccccc34)[C@@H]3Oc4c(-c5ccccc5)ccc5c4[C@@]31CCN(CC1CC1)[C@@H]2C5,1.9 µM (inactive),4.07 µM (inactive),1.65 µM (inactive),2.11 µM (inactive),,,1.77 µM (inactive),1.71 µM (inactive),1.72 µM (inactive),1.89 µM (inactive),3.65 µM (inactive),1.74 µM (inactive),2.22 µM (inactive),,2.71 µM (inactive),1.85 µM (inactive),2.92 µM (inactive),1.57 µM (inactive),,2.06 µM (inactive)
COC1=CC(=O)C(O)=C(CC2(C)C(C)CCC3(C)C2CCCC3(C)C)C1=O (centres undefined),4.03 µM (inactive),5.2 µM (inactive),3.86 µM (inactive),4.03 µM (inactive),,2.31 µM (inactive),,2.44 µM (inactive),1.88 µM (inactive),4.6 µM (inactive),2.96 µM (inactive),4.49 µM (inactive),4.57 µM (inactive),2.84 µM (inactive),4.18 µM (inactive),,1.91 µM (inactive),3.6 µM (inactive),3.89 µM (inactive),2.58 µM (inactive)
O=c1c2c(c1=O)C1(SCCCS1)c1cc(Cl)ccc1O2,> 100 µM (inactive),> 100 µM (inactive),> 100 µM (inactive),> 100 µM (inactive),> 100 µM (inactive),> 100 µM (inactive),> 100 µM (inactive),> 100 µM (inactive),> 100 µM (inactive),> 100 µM (inactive),> 100 µM (inactive),> 100 µM (inactive),> 100 µM (inactive),> 100 µM (inactive),> 100 µM (inactive),,> 100 µM (inactive),> 100 µM (inactive),> 100 µM (inactive),> 100 µM (inactive)
O=C(COC(=O)c1cccc2c(=O)c3ccccc3[nH]c12)Nc1ccc(S(=O)(=O)Nc2ncccn2)cc1,49.5 µM (inactive),39.8 µM (inactive),42.2 µM (inactive),47.2 µM (inactive),,43.3 µM (inactive),,24.3 µM (inactive),> 100 µM (inactive),35.7 µM (inactive),51.4 µM (inactive),> 100 µM (inactive),35.8 µM (inactive),20.5 µM (inactive),59.2 µM (inactive),,27.5 µM (inactive),38.8 µM (inactive),30 µM (inactive),30.9 µM (inactive)
N#Cc1nc(-c2ccccn2)c(-c2ccccn2)nc1C#N,1.45 µM (inactive),1.43 µM (inactive),0.515 µM (active),3.08 µM (inactive),10.7 µM (inactive),3.58 µM (inactive),2.7 µM (inactive),2.32 µM (inactive),0.47 µM (active),1.03 µM (active),2.83 µM (inactive),1.3 µM (inactive),2.64 µM (inactive),4.19 µM (inactive),1.79 µM (inactive),11.2 µM (inactive),2.69 µM (inactive),3.66 µM (inactive),8.05 µM (inactive),
Cc1c(Cl)ccc2c1NC(=O)C2(O)CC(=O)c1cccc2ccccc12 (centres undefined),> 100 µM (inactive),> 100 µM (inactive),73.6 µM (inactive),38.9 µM (inactive),,99.3 µM (inactive),,44.7 µM (inactive),59.7 µM (inactive),96.6 µM (inactive),28.9 µM (inactive),> 100 µM (inactive),> 100 µM (inactive),> 100 µM (inactive),26.2 µM (inactive),,40.3 µM (inactive),> 100 µM (inactive),> 100 µM (inactive),13.3 µM (inactive)
